Test results as given in US12187706B2, “NLRP3 modulators” (INNATE TUMOR IMMUNITY, INC., priority 2019, dated 2025).

Target: T1, NLRP3 (Homo sapiens, UniProt Q96P20)
T1 construct: host or cells: PMA-differentiated THP-1 cells
Experiment: Measurement of IL-1β production in PMA-differentiated THP-1 cells (NLRP3 hIL1B)
Format: cell-based
Method: Measurement of IL-1β Production in PMA-Differentiated THP-1 Cells
THP-1 cells were purchased from the American Type Culture Collection and sub-cultured according to instructions from the supplier. Prior to experiments, cells were cultured in RPMI 1640 containing 10% heat inactivated FBS, penicillin (100 units/ml) and streptomycin (100 μg/ml), and maintained in log phase prior to experimental setup. Prior to the experiment THP-1 were treated with PMA (Phorbol 12-myristate 13-acetate) (10 μg/ml) for 24 hours. The day of the experiment the media was removed and attaching cells were treated with trypsin for 2 minutes, cells were then collected, washed with PBS (phosphate buffer saline), spin down, resuspended in 2% heat inactivated FBS with RPMI at a concentration of 1×10^6 cells/ml, and 100 μl was plated in a 96 well plate. Compounds were dissolved in dimethyl sulfoxide (DMSO) and added to the culture medium to achieve desired concentration (e.g. 100, 30, 10, 3, 1, 0.3 or 0.1 μM). Cells were incubated with compounds for 4 hours. Cell free supernatant was collected and the production of IL-1β was evaluated by ELISA. A vehicle only control was run concurrently with each experiment. Final DMSO concentration was 1%.
Measurement of IL-1β Production in PMA-Differentiated THP-1 Cells (Alternative Procedure)
THP-1 cells were purchased from the American Type Culture Collection and sub-cultured according to instructions from the supplier. Prior to experiments, cells were cultured in RPMI 1640 containing 10% heat inactivated FBS, penicillin (100 units/ml), streptomycin (100 μg/ml), HEPES (10 mM) and sodium pyruvate (1 mM) and maintained in log phase prior to experimental setup. Prior to the experiment, THP-1 cells were treated with PMA (Phorbol 12-myristate 13-acetate) (20 μg/ml) overnight. The day of the experiment, the media was removed and attached cells were treated with trypsin for 2 minutes, cells were then collected, washed with PBS (phosphate buffer saline), pelleted by centrifugation and resuspended in 2% heat inactivated FBS with RPMI at a concentration of 50,000 cells/well in a 384 well plate. Cell free supernatant was collected and the production of IL-1β was evaluated by ELISA. Compounds were dissolved in dimethyl sulfoxide (DMSO) and added to the culture medium to achieve desired concentration (e.g. 100, 30, 10, 3, 1, 0.3 or 0.1 μM). Cells were incubated with compounds for 2 hours. A vehicle only control was run concurrently with each experiment. Final DMSO concentration was 1%.
Measurement of IL-1β Production—hTRF Protocol (Second Alternative Procedure)
Serial dilutions of compounds in DMSO were added to low volume 384 well plates at 100 nl/well using an ECHO 550 acoustic dispenser (Labcyte) to achieve final starting concentration of 10 μM in assay.
THP-1 cells in RPMI (Gibco, 11875) media with 10% FBS at a density of 1×10^6 cell/ml in a T175 flask were treated with a final concentration of phorbol 12-myristate 13-acetate (PMA) (Sigma, P1585) of 50 ng/ml overnight at 37° C. at 5% CO2 for differentiation. Cells were harvested the next day after rinsing well with dPBS using 0.5% trypsin. A cell solution was prepared of 1×10^6 cells/ml for 50,000 cells in 50 μl/well in RPMI media with 2% FBS. Cells were plated using a multichannel pipette onto the compound dilutions in Greiner, 384 well, black clear bottom tissue culture treated plates (781090). The plates were incubated in 37° C. incubator at 5% CO2 for 2 hours.
After the 2 hour incubation, the cell plates were spun in the centrifuge for 5 minutes at 1200 rpm. Using the Felix (CyBio), 8 μl of the supernatant was transferred to 384 well, low volume, white proxy plates. (Perkin Elmer, 6008230). A human IL1beta hTRF kit was used to analyze the supernatant (CISBIO, 62HIL1BPEG). The kit instructions were followed for preparing the IL1Beta standard curve and then the antibodies from the kit were diluted 1:40 rather than 1:20 as kit instructed.

T1 sequence (Q96P20 whole entry): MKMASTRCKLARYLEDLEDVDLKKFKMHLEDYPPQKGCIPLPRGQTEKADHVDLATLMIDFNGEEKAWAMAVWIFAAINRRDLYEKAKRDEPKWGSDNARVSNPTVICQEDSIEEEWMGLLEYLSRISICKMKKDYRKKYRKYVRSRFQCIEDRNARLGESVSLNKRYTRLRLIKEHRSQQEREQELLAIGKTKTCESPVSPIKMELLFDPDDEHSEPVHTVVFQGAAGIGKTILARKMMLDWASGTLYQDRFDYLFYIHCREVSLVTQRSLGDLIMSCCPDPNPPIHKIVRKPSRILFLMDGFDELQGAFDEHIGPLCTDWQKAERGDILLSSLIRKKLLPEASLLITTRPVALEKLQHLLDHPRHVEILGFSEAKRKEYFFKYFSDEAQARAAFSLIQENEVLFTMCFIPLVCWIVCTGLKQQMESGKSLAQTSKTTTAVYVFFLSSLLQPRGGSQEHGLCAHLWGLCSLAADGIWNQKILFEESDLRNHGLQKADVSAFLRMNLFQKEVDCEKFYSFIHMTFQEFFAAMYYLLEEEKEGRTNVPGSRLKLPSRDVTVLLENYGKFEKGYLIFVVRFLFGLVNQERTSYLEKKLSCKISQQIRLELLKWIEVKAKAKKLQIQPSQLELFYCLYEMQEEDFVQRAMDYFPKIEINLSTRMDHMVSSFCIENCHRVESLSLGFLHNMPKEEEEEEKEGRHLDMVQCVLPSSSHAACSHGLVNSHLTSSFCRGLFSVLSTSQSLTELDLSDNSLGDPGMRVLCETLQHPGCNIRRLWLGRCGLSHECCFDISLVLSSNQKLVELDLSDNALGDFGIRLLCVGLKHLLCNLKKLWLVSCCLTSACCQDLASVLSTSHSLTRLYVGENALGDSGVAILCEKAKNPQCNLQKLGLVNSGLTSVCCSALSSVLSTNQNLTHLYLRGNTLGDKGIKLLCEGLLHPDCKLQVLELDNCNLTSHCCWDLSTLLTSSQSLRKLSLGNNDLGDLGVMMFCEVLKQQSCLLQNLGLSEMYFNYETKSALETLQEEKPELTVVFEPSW

| SMILES | EC50 |
| --- | --- |
| CN(C)c1ccc(CNc2nc(N)nc3cc(-c4ccn[nH]4)ccc23)nn1 [Example 164, N4-((6-(dimethylamino)pyridazin-3-yl)methyl)-7-(1H-pyrazol-5-yl)quinazoline-2,4-diamine] | 1240 nM |
| CC(C)(O)C(O)CNc1nc(N)nc2cc(-c3ccn[nH]3)ccc12 (single isomer, unassigned) [Example 9, 1-((2-amino-7-(1H-pyrazol-5-yl)quinazolin-4-yl)amino)-3-methylbutane-2,3-diol] | 1310 nM |
| CO[C@@H]1C[C@@H](Nc2nc(N)nc3cc(-c4ccn[nH]4)ccc23)C[C@H]1O (racemic) [Example 141, rac-(1R,2R,4S)-4-((2-amino-7-(1H-pyrazol-5-yl)quinazolin-4-yl)amino)-2-methoxycyclopentan-1-ol] | 3650 nM |
| Nc1nc(N[C@H]2CCCC[C@H]2O)c2ccc(-c3ccn[nH]3)cc2n1 [Example 67] | 2260 nM |
| Nc1nc(NC(CO)c2nccs2)c2ccc(-c3ccn[nH]3)cc2n1 (centres unmarked) [Example 35] | 5530 nM |
| Nc1nc(NCc2cc3n(n2)CCCO3)c2ccc(-c3ccn[nH]3)cc2n1 [Example 44] | 2150 nM |
| Nc1nc(NCc2ccncn2)c2ccc(-c3ccn[nH]3)cc2n1 [Example 50] | 1870 nM |
| Nc1nc(NCc2ccnnc2)c2ccc(-c3ccn[nH]3)cc2n1 [Example 60] | 3490 nM |
| Cc1cc(C)c(CNc2nc(N)nc3cc(-c4ccn[nH]4)ccc23)c(=O)[nH]1 [Example 143] | 1230 nM |
| Nc1nc(NCCCO)c2cc(F)c(-c3ccn[nH]3)cc2n1 [Example 24, 3-((2-amino-6-fluoro-7-(1H-pyrazol-5-yl)quinazolin-4-yl)amino)propan-1-ol] | 1680 nM |
| Nc1nc(NCCc2ccccn2)c2c(F)cc(-c3cc[nH]n3)cc2n1 [Example 122] | 1110 nM |
| Cn1cnc(CNc2nc(N)nc3cc(-c4ccn[nH]4)ccc23)c1 [Example 146] | 8480 nM |
| Nc1nc(N[C@H]2COCC[C@@H]2O)c2ccc(-c3ccn[nH]3)cc2n1 [Example 53] | 1350 nM |
| Nc1nc(N[C@H]2C[C@@H](O)C[C@@H]2O)c2ccc(-c3cc[nH]n3)cc2n1 (racemic) [Example 117] | 1560 nM |
| Nc1nc(NOCCO)c2ccc(-c3ccn[nH]3)cc2n1 [Example 186] | 3000 nM |
| Cn1ccnc1C(O)CNc1nc(N)nc2cc(-c3ccn[nH]3)ccc12 (single isomer, unassigned) [Example 149, 2-((2-amino-7-(1H-pyrazol-5-yl)quinazolin-4-yl)amino)-1-(1-methyl-1H-imidazol-2-yl)ethan-1-ol] | 4420 nM |
| Nc1nc(NCCCO)c2cc(Cl)c(-c3ccn[nH]3)cc2n1 [Example 3, 3-((2-amino-6-chloro-7-(1H-pyrazol-5-yl)quinazolin-4-yl)amino)propan-1-ol] | 6840 nM |
| Nc1nc(NC[C@H]2C[C@H](O)C2)c2ccc(-c3ccn[nH]3)cc2n1 [Example 167] | 1240 nM |
| Nc1nc(NC2CCS(=O)(=O)CC2)c2ccc(-c3ccn[nH]3)cc2n1 [Example 55] | 19700 nM |
| Cn1cnc(CNc2nc(N)nc3cc(-c4ccn[nH]4)ccc23)n1 [Example 189] | 1410 nM |
| COc1ncc(CNc2nc(N)nc3cc(-c4ccn[nH]4)ccc23)cn1 [Example 48] | 2920 nM |
| Nc1nc(N[C@@H]2COCC[C@H]2O)c2ccc(-c3ccn[nH]3)cc2n1 [Example 138] | 2140 nM |
| C[C@@]1(O)CC[C@@H](Nc2nc(N)nc3cc(-c4ccn[nH]4)ccc23)C1 (racemic) [Example 108] | 4170 nM |

Results, then the compound that gave them:

| EC50 | SMILES |
| --- | --- |
| 780 nM | Nc1nc(NCc2cnccn2)c2ccc(-c3ccn[nH]3)cc2n1 [Example 52] |
| 220 nM | Nc1nc(NCc2ncco2)c2ccc(-c3ccn[nH]3)cc2n1 [Example 61] |
| 240 nM | Nc1nc(N[C@@H]2C[C@H]2c2cccnc2)c2ccc(-c3ccn[nH]3)cc2n1 (single isomer, unassigned) [Example 162, 7-(1H-pyrazol-5-yl)-N4-((trans)-2-(pyridin-3-yl)cyclopropyl)quinazoline-2,4-diamine] |
| 530 nM | COCC(O)CNc1nc(N)nc2cc(-c3ccn[nH]3)ccc12 (centres unmarked) [Example 72] |
| 460 nM | CC(C)(O)CCNc1nc(N)nc2cc(-c3ccn[nH]3)ccc12 [Example 89] |
| 1100 nM | Nc1nc(N[C@@H]2CCCC[C@@H]2O)c2ccc(-c3ccn[nH]3)cc2n1 [Example 68] |
| 160 nM | Nc1nc(NC2CCC2)c2ccc(-c3ccn[nH]3)cc2n1 [Example 177] |
| 1020 nM | Nc1nc(NCCOCCO)c2ccc(-c3ccn[nH]3)cc2n1 [Example 140] |
| 460 nM | C[C@]1(O)C[C@@H](Nc2nc(N)nc3cc(-c4ccn[nH]4)ccc23)C1 [Example 191, (cis)-3-((2-amino-7-(1H-pyrazol-5-yl)quinazolin-4-yl)amino)-1-methylcyclobutan-1-ol] |
| 490 nM | Nc1nc(NCCc2ccccn2)c2ccc(-c3cc[nH]n3)cc2n1 [Example 119] |
| 280 nM | CNc1nc(N)nc2cc(-c3ccn[nH]3)ccc12 [Example 84] |
| 210 nM | Nc1nc(N[C@@H]2CC[C@@H](O)C2)c2ccc(-c3ccn[nH]3)cc2n1 [Example 46] |
| 180 nM | Nc1nc(NCC2(CO)CC2)c2ccc(-c3ccn[nH]3)cc2n1 [Example 204] |
| 240 nM | Nc1nc(Nc2cn[nH]c2)c2ccc(-c3ccn[nH]3)cc2n1 [Example 112] |
| 810 nM | Nc1nc(NC[C@H]2C[C@@H](O)C2)c2ccc(-c3ccn[nH]3)cc2n1 [Example 166] |
| 1060 nM | Cc1cc(-c2cc[nH]n2)cc2nc(N)nc(NCc3cncnc3)c12 [Example 136] |
| 740 nM | Nc1nc(N[C@H]2CCC[C@H]2O)c2ccc(-c3ccn[nH]3)cc2n1 [Example 66] |
| 230 nM | Nc1nc(NCCCCO)c2ccc(-c3ccn[nH]3)cc2n1 [Example 85] |
| 730 nM | Nc1nc(NCc2cnn(-c3ccccc3)c2)c2ccc(-c3ccn[nH]3)cc2n1 [Example 169] |
| 370 nM | Nc1nc(NCc2cc[nH]n2)c2c(Cl)cc(-c3cc[nH]n3)cc2n1 [Example 129] |
| 70 nM | CC(CCO)Nc1nc(N)nc2cc(-c3ccn[nH]3)ccc12 (single isomer, unassigned) [Example 201, 3-((2-amino-7-(1H-pyrazol-5-yl)quinazolin-4-yl)amino)butan-1-ol] |
| 830 nM | CCCCC(CCO)Nc1nc(N)nc2cc(-c3ccn[nH]3)ccc12 (single isomer, unassigned) [Example 101, 3-((2-amino-7-(1H-pyrazol-5-yl)quinazolin-4-yl)amino)heptan-1-ol] |
| 640 nM | Nc1nc(NCc2ccno2)c2ccc(-c3ccn[nH]3)cc2n1 [Example 71] |
| 240 nM | Nc1nc(NCc2nccs2)c2ccc(-c3ccn[nH]3)cc2n1 [Example 28] |
| 510 nM | Nc1nc(NCCc2cnc[nH]2)c2ccc(-c3ccn[nH]3)cc2n1 [Example 148] |
| 200 nM | Nc1nc(NCc2ncccc2F)c2ccc(-c3ccn[nH]3)cc2n1 [Example 170] |
| 440 nM | Nc1nc(NCc2cccc3[nH]ncc23)c2ccc(-c3ccn[nH]3)cc2n1 [Example 156] |
| 650 nM | Nc1nc(NCc2ccc(Cl)cn2)c2ccc(-c3ccn[nH]3)cc2n1 [Example 151] |
| 630 nM | CCCCONc1nc(N)nc2cc(-c3ccn[nH]3)ccc12 [Example 95] |
| 180 nM | Nc1nc(NCc2cnsc2)c2ccc(-c3ccn[nH]3)cc2n1 [Example 174] |
